Test results reported in the supplement of paper PMC4862054.

These molecules were tested on BT-549 (assay: normalised response (% of control), CellTiter-Glo; higher = more viable cells (100 = DMSO, 0 = benzethonium chloride kill control)). Conditions: incubation time: 72 h.
In short: (§1)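 Normalised signals at single concentrations make up the values. They come from breast cancer cell lines seeded (20 µl suspension) into 384-well plates with compound at 5 concentrations in 10-fold steps over a compound-specific 10,000-fold range, incubated 72 h, and read for CellTox Green fluorescence then CellTiter-Glo luminescence. Each plate was normalised to 0.1 % DMSO (100) and a positive kill control (0).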

Point of comparison: `CC(C)NC[C@@H](C(=O)N1CCN(c2ncnc3c2[C@H](C)C[C@H]3O)CC1)c1ccc(Cl)cc1` [GDC-0068] (1000 nM), normalised response 70.2%. Against it:
- CC(C)(C)Cn1c(N)nc2ccc(-c3[nH]c(C(C)(C)C)nc3-c3ccc(F)cc3)nc21 (1000 nM) — higher, 93.7%
- Cn1cc(C[C@@H](N)C(=O)O)c2ccccc21 [1-methyl-D-tryptophan] (500 nM) — higher, 105%
- CC[C@H](CC#N)OC(=O)N[C@@H](C)c1cccc(NC(=O)Nc2ccc(-c3cnco3)c(OC)c2)c1 [AVN944] (1000 nM) — lower, 36.3%
- CCc1cnn2c(NCc3ccc[n+]([O-])c3)cc(N3CCCC[C@H]3CCO)nc12 [Dinaciclib] (100 nM) — lower, 12.7%
- COc1cc(Nc2ncc(F)c(Nc3ccc4c(n3)N(COP(=O)(O)O)C(=O)C(C)(C)O4)n2)cc(OC)c1OC [Fostamatinib] (250 nM) — higher, 93.7%
- CCCc1cc(C)[nH]c(=O)c1CNC(=O)c1cc(-c2ccnc(N3CCN(C)CC3)c2)cc2c1cnn2C(C)C [GSK343] (1000 nM) — higher, 92.9%
- COc1cc2c(cc1-c1c(C)noc1C)ncc1[nH]c(=O)n([C@H](C)c3ccccn3)c12 [I-BET151] (1000 nM) — lower, 57.5%
- CN1CCc2c(c3ccccc3n2Cc2ccc(C(=O)NO)cc2)C1 [Tubastatin A] (1000 nM) — higher, 101%

The molecules below were run on CAL-120 in the same assay as above. Conditions: incubation time: 72 h.
In short: as §1

Point of comparison: `COc1cc(Nc2ncc(F)c(Nc3ccc4c(n3)N(COP(=O)(O)O)C(=O)C(C)(C)O4)n2)cc(OC)c1OC` [Fostamatinib] (250 nM), normalised response 86.9%. Against it:
- CC(C)(C)Cn1c(N)nc2ccc(-c3[nH]c(C(C)(C)C)nc3-c3ccc(F)cc3)nc21 (1000 nM) — higher, 96.6%
- Cn1cc(C[C@@H](N)C(=O)O)c2ccccc21 [1-methyl-D-tryptophan] (500 nM) — higher, 105%
- CC[C@H](CC#N)OC(=O)N[C@@H](C)c1cccc(NC(=O)Nc2ccc(-c3cnco3)c(OC)c2)c1 [AVN944] (1000 nM) — lower, 59.9%
- CCc1cnn2c(NCc3ccc[n+]([O-])c3)cc(N3CCCC[C@H]3CCO)nc12 [Dinaciclib] (100 nM) — lower, 36.6%
- CC(C)NC[C@@H](C(=O)N1CCN(c2ncnc3c2[C@H](C)C[C@H]3O)CC1)c1ccc(Cl)cc1 [GDC-0068] (1000 nM) — lower, 81.4%
- CCCc1cc(C)[nH]c(=O)c1CNC(=O)c1cc(-c2ccnc(N3CCN(C)CC3)c2)cc2c1cnn2C(C)C [GSK343] (1000 nM) — higher, 95%
- COc1cc2c(cc1-c1c(C)noc1C)ncc1[nH]c(=O)n([C@H](C)c3ccccn3)c12 [I-BET151] (1000 nM) — lower, 71.2%
- CN1CCc2c(c3ccccc3n2Cc2ccc(C(=O)NO)cc2)C1 [Tubastatin A] (1000 nM) — higher, 93.3%

These molecules were tested on CAL-148 in the same assay as above. Conditions: incubation time: 72 h.
In short: as §1

Point of comparison: `CCCc1cc(C)[nH]c(=O)c1CNC(=O)c1cc(-c2ccnc(N3CCN(C)CC3)c2)cc2c1cnn2C(C)C` [GSK343] (1000 nM), normalised response 77.9%. Against it:
- CC(C)(C)Cn1c(N)nc2ccc(-c3[nH]c(C(C)(C)C)nc3-c3ccc(F)cc3)nc21 (1000 nM) — higher, 93.1%
- Cn1cc(C[C@@H](N)C(=O)O)c2ccccc21 [1-methyl-D-tryptophan] (500 nM) — higher, 89.7%
- CC[C@H](CC#N)OC(=O)N[C@@H](C)c1cccc(NC(=O)Nc2ccc(-c3cnco3)c(OC)c2)c1 [AVN944] (1000 nM) — lower, 34.3%
- CCc1cnn2c(NCc3ccc[n+]([O-])c3)cc(N3CCCC[C@H]3CCO)nc12 [Dinaciclib] (100 nM) — lower, 52.9%
- COc1cc(Nc2ncc(F)c(Nc3ccc4c(n3)N(COP(=O)(O)O)C(=O)C(C)(C)O4)n2)cc(OC)c1OC [Fostamatinib] (250 nM) — higher, 91.4%
- CC(C)NC[C@@H](C(=O)N1CCN(c2ncnc3c2[C@H](C)C[C@H]3O)CC1)c1ccc(Cl)cc1 [GDC-0068] (1000 nM) — lower, 19%
- COc1cc2c(cc1-c1c(C)noc1C)ncc1[nH]c(=O)n([C@H](C)c3ccccn3)c12 [I-BET151] (1000 nM) — higher, 101%
- CN1CCc2c(c3ccccc3n2Cc2ccc(C(=O)NO)cc2)C1 [Tubastatin A] (1000 nM) — higher, 103%

Each molecule was assayed on CAL-51 in the same assay as above. Conditions: incubation time: 72 h.
In short: as §1

Point of comparison: `CN1CCc2c(c3ccccc3n2Cc2ccc(C(=O)NO)cc2)C1` [Tubastatin A] (1000 nM), normalised response 53.5%. Against it:
- CC(C)(C)Cn1c(N)nc2ccc(-c3[nH]c(C(C)(C)C)nc3-c3ccc(F)cc3)nc21 (1000 nM) — higher, 103%
- Cn1cc(C[C@@H](N)C(=O)O)c2ccccc21 [1-methyl-D-tryptophan] (500 nM) — higher, 81.3%
- CC[C@H](CC#N)OC(=O)N[C@@H](C)c1cccc(NC(=O)Nc2ccc(-c3cnco3)c(OC)c2)c1 [AVN944] (1000 nM) — lower, 24.1%
- CCc1cnn2c(NCc3ccc[n+]([O-])c3)cc(N3CCCC[C@H]3CCO)nc12 [Dinaciclib] (100 nM) — lower, 10.2%
- COc1cc(Nc2ncc(F)c(Nc3ccc4c(n3)N(COP(=O)(O)O)C(=O)C(C)(C)O4)n2)cc(OC)c1OC [Fostamatinib] (250 nM) — higher, 105%
- CC(C)NC[C@@H](C(=O)N1CCN(c2ncnc3c2[C@H](C)C[C@H]3O)CC1)c1ccc(Cl)cc1 [GDC-0068] (1000 nM) — higher, 60.5%
- CCCc1cc(C)[nH]c(=O)c1CNC(=O)c1cc(-c2ccnc(N3CCN(C)CC3)c2)cc2c1cnn2C(C)C [GSK343] (1000 nM) — higher, 73.8%
- COc1cc2c(cc1-c1c(C)noc1C)ncc1[nH]c(=O)n([C@H](C)c3ccccn3)c12 [I-BET151] (1000 nM) — higher, 87.4%

Each molecule was assayed on CAL-85-1 in the same assay as above. Conditions: incubation time: 72 h.
In short: as §1

Point of comparison: `CCc1cnn2c(NCc3ccc[n+]([O-])c3)cc(N3CCCC[C@H]3CCO)nc12` [Dinaciclib] (100 nM), normalised response 8.18%. Against it:
- CC(C)(C)Cn1c(N)nc2ccc(-c3[nH]c(C(C)(C)C)nc3-c3ccc(F)cc3)nc21 (1000 nM) — higher, 104%
- Cn1cc(C[C@@H](N)C(=O)O)c2ccccc21 [1-methyl-D-tryptophan] (500 nM) — higher, 100%
- CC[C@H](CC#N)OC(=O)N[C@@H](C)c1cccc(NC(=O)Nc2ccc(-c3cnco3)c(OC)c2)c1 [AVN944] (1000 nM) — higher, 40.8%
